{"source": "paper PMC10829302", "about": "(BMC Microbiology, 2024)", "biological_target": "T1, tubulin (α/β heterodimer; β-tubulin) (Sus scrofa, UniProt P02554)", "T1 construct": "heterodimer of two closely related 55 kDa proteins (α and β tubulins), isolated from Porcine brain tissue; with α-tubulin", "T1 sequence (P02554 whole entry)": "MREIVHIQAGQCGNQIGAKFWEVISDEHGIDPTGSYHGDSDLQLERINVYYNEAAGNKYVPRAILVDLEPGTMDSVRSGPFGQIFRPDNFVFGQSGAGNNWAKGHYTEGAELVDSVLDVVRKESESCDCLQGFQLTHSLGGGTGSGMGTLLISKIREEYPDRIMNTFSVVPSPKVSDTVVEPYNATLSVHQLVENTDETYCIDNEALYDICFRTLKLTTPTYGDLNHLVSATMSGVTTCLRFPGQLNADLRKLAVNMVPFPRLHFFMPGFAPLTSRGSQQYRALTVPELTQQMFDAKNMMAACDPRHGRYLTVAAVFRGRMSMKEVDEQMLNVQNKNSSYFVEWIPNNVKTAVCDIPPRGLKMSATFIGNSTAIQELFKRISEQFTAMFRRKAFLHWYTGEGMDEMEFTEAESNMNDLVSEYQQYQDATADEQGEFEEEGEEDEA", "T1 sequence (P02550 whole entry partner)": "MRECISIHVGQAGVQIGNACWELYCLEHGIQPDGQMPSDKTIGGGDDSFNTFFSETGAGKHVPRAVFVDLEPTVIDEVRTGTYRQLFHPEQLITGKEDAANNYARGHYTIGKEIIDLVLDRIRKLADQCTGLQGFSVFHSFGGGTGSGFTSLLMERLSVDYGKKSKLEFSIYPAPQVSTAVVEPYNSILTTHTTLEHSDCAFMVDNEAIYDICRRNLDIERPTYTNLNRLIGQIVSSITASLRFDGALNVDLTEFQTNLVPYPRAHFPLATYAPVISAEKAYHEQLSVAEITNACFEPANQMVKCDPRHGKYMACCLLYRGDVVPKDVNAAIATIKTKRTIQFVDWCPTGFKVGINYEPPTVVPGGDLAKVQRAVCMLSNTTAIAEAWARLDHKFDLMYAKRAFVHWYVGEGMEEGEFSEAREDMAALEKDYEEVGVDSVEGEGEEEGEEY", "assay": "tubulin polymerization assay with purified porcine brain tubulin (Cytoskeleton BK011P), positive control", "assay_type": "biochemical"}
{"compound": "CC(=O)O[C@H]1C(=O)[C@@]2(C)[C@H]([C@H](OC(=O)c3ccccc3)[C@]3(O)C[C@H](OC(=O)[C@H](O)[C@@H](NC(=O)c4ccccc4)c4ccccc4)C(C)=C1C3(C)C)[C@]1(OC(C)=O)CO[C@@H]1C[C@@H]2O", "note": "[Paclitaxel]", "values": [{"measurement": "IC50", "result": 2.34, "unit": "µM"}]}
